# Source: US8609658B2, “N,N-dialkylalkylenyl esters, compositions thereof, and methods for use thereof” (Allergan, Inc., priority 2011, dated 2013)
# Experiment: Aqueous stability in formulation vehicle (% substrate remaining)
# Format: physicochemical
# Details: 0.0005% w/w (5 ppm) compound in aqueous formulation vehicle, pH 6
SMILES,% Substrate Remaining (7 days/25° C.) [%],% Substrate Remaining (7 days/40° C.) [%],% Substrate Remaining (28 days/25° C.) [%]
CC[N+](C)(CC)CCCOC(=O)COc1cccc(NC(=O)c2cc(-c3cccc(F)c3)ccc2F)c1,95.5,49.2,82.6
CN(C)c1ccc(OC(=O)COc2cccc(NC(=O)c3cc(-c4cccc(F)c4)ccc3F)c2)cc1,92,78.8,78
CCN(CC)CCCC(C)OC(=O)COc1cccc(NC(=O)c2cc(-c3cccc(F)c3)ccc2F)c1 (stereo not drawn),101.2,92,94.4
O=C(COc1cccc(NC(=O)c2cc(-c3cccc(F)c3)ccc2F)c1)Oc1ccc(CN2CCOCC2)cc1,61.5,18,12
